Test system: pain
Assay: Comparison of skin patches formulated with type A versus type B crystalline CBD
Format: in vivo
Description: The “potency” and/or “activity” of “type A” CBD can e.g. be determined by comparing the effect using essentially identical compositions with the exception of the type and/or quantity of CBD used. Said potency, activity and or effect can e.g. be determined essentially as disclosed in the Examples by replacing the placebo with the “B-type” CBD comprising formulation. Alternatively, the potency can be determined in the quantity of CBD needed to provide the same effect, such as pain relief.
Two different sets of skin patches are provided according to Example 1, e.g. formulation A or F, the only difference being that the crystalline CBD used in the formulation is either of type A (needle-like crystals; FIG. 9) or type B (bunch/cluster-like; FIG. 10).
Type A crystalline CBD is sourced from Enecta, while type B CBD is sourced from Pharma Hemp.
Such tests can e.g. be performed, mutatis mutandis, according to Examples 1-4.

## C=C(C)[C@@H]1CCC(C)=C[C@H]1c1c(O)cc(CCCCC)cc1O [type A CBD, Cannabidiol]
Observed by the inventors, see Example 6
  Potency of CBD with needle-like crystal structure compared with CBD of crystal structure B: significantly more potent
Skin patches according to Example 1, e.g. formulation A or F, only the crystalline CBD differs
  Activity of skin patch with type A CBD compared with comparable skin patch with type B CBD: significantly more active

Reference: patent US20240269088A1, “PAIN RELIEF PATCH” (CS MEDICA A/S, priority 2021, published 2024)
